Assay results reported in publication PMC12646544, “Bioremediation of acetamiprid and sulfoxaflor co-contamination by Ensifer sp. DA6 and characterization of a novel nitrile hydratase involved” (Frontiers in Microbiology, 2025).

Tested on: T1, Ensifer sp. DA6 NHase
T1 construct: gene nthA; NHase gene cluster (alpha, beta, accessory) in pET28a, E. coli Rosetta (DE3), N-terminal 6xHis-tag, Ni-NTA purified; cobalt type; accessory protein not detected on SDS-PAGE; forward primer encodes MSEHHHG; alpha motif VCTLCSC; with Nitrile hydratase accessory protein
Test: HPLC, Michaelis-Menten non-linear regression
Type: biochemical
Details: 50 mmol/L PBS pH 7.0, 45 °C, cobalt enzyme, 25-1,000 mg/L substrate
Text: HPLC, Michaelis-Menten non-linear regression on Ensifer sp.

| SMILES | Km (60 min) [mM] | Km (30 min, stereoisomer mixture) [mM] |
| --- | --- | --- |
| C/C(=N\C#N)N(C)Cc1ccc(Cl)nc1 [ACE, N-[(6-chloro-3-pyridyl)methyl]-N′-cyano-N-methylacetamidine] | 8.16 |  |
| CC(c1ccc(C(F)(F)F)nc1)S(C)(=O)=NC#N (centres unmarked) [SUL, [N-(methyloxido{1-[6-(trifluoromethyl)-3-pyridinyl]ethyl}-λ^4-sulfanylidene)cyanamide]] |  | 7.93 |
